Results from patent publication US20260001914A1, “MACROCYCLIC PEPTIDES TARGETING KRAS” (Merck Sharp & Dohme LLC, priority 2022, published 2026).
*1 amine or outer side, *2 acyl side, *3 side chain or, on linkers, in order; H or OH if unused. Where a SMILES comes first, the peptide text is derived from it. Bridges are numbered along the chain shown (N, C = ends). [ ]: non-standard residue; d: D form. NMeNva(5-imidazol-1-yl) = CN[C@@H](CCCn1ccnc1)C(=O)O; Phe(4-guanidino) = N=C(N)Nc1ccc(C[C@H](N)C(=O)O)cc1; X18 = CNC(=N)N(C)c1ccc(C[C@H](N[*:1])C(=O)[*:2])cc1; X19 = C[C@H](c1ccccc1)[C@@H](C(=O)[*:2])N(C)[*:1]; Ala(pyrimidin-5-yl) = N[C@@H](Cc1cncnc1)C(=O)O; NMe3Pal(6-Me) = CN[C@@H](Cc1ccc(C)nc1)C(=O)O; NMePhe(3-Me) = CN[C@@H](Cc1cccc(C)c1)C(=O)O; NMePhe(4-Me) = CN[C@@H](Cc1ccc(C)cc1)C(=O)O; X45 = CN([C@@H](Cc1ccncc1F)C(=O)[*:2])[*:1]; NMeHis(τ-Me) = CN[C@@H](Cc1cn(C)cn1)C(=O)O; X25 = O=C([C@H](Cc1ccc(F)nc1)N[*:1])[*:2]; X3 = CN([C@@H](Cc1cncnc1)C(=O)[*:2])[*:1]; X62 = O=C([C@@H]1CC[C@H](N[*:1])C1)[*:2]; Phe(4-NH2) = Nc1ccc(C[C@H](N)C(=O)O)cc1; X11 = CC(C)(F)CC[C@H](N[*:1])C(=O)[*:2]; X15 = O=C([C@H](Cc1cnccc1F)N[*:1])[*:2]; X30 = O=C([C@H](Cc1ncccc1F)N[*:1])[*:2]; Phe(4-F) = N[C@@H](Cc1ccc(F)cc1)C(=O)O; NHCH2CH2SCH2CO = O=C(CSCCN[*:1])[*:2]; Ala(cPent) = N[C@@H](CC1CCCC1)C(=O)O; Phe(2-F) = N[C@@H](Cc1ccccc1F)C(=O)O; NMe3Pal = CN[C@@H](Cc1cccnc1)C(=O)O; X1 = O=C(C12CC(CN[*:1])(C1)C2)[*:2]; X41 = COCCC[C@H](N[*:1])C(=O)[*:2]; NMeOrn(Me) = CNCCC[C@H](NC)C(=O)O; Ala(cPr) = N[C@@H](CC1CC1)C(=O)O; NMeF = CN[C@@H](Cc1ccccc1)C(=O)O; PhLac = O=C(O)[C@@H](O)Cc1ccccc1; 3Pal = N[C@@H](Cc1cccnc1)C(=O)O; Ahp(2) = CCCCC[C@H](N)C(=O)O; Cba = N[C@@H](CC1CCC1)C(=O)O; hLeu = CC(C)CC[C@H](N)C(=O)O; αMeC = C[C@](N)(CS)C(=O)O; NMeA = CN[C@@H](C)C(=O)O; Nle = CCCC[C@H](N)C(=O)O; Pra = C#CC[C@H](N)C(=O)O; Nva = CCC[C@H](N)C(=O)O

target: KRAS-G12D protein (Homo sapiens, UniProt P01116, G12D); test: SOS-mediated nucleotide exchange assay (BODIPY-GDP / Tb-streptavidin TR-FRET); format: biochemical; settings: not given
Sequence (P01116 1-188 isoform P01116-2 G12D): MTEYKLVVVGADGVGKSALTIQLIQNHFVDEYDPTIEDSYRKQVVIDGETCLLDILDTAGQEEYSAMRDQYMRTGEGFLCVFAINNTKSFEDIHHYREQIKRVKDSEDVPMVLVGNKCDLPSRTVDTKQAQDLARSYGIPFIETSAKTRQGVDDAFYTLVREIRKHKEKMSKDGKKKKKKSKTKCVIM

| Structure (SMILES) | EC50 [nM] |
| --- | --- |
| CCCC[C@@H]1NC(=O)[C@H](Cc2ccc(O)cc2)NC(=O)[C@H](CC(C)C)NC(=O)[C@H](Cc2ccc(N)cc2)NC(=O)[C@H](CCCNC(=N)N)NC(=O)[C@H](Cc2ccccc2)NC(=O)CSCCNC(=O)[C@H](Cc2ccccc2)N(C)C1=O [compound 79, cyclo(F-R~Phe4NH2-L-Y-Nle-NMeF-Cysteamine-ClAc)] (cyclo(FR[Phe(4-NH2)]LY[Nle][NMeF][NHCH2CH2SCH2CO])) | 2360 |
| CCCC[C@@H]1NC(=O)[C@H](Cc2cccnc2)NC(=O)[C@H](CCCNC(=N)N)NC(=O)[C@H](Cc2ccccc2)NC(=O)[C@@H]2CC[C@@H](C2)NC(=O)[C@H](Cc2ccccc2)N(C)C(=O)[C@H](CCCC)NC(=O)[C@H](Cc2ccc(OC)cc2)NC1=O [compound 203, cyclo(F-R-3Pal-Nle-TyrOMe-Nle-NMeF-bhcLeu)] (cyclo(FR[3Pal][Nle]Y(Me)[Nle][NMeF][X62])) | 193 |
| CCCC[C@@H]1NC(=O)[C@H](Cc2ccc(N(C)C(=N)NC)cc2)NC(=O)[C@H](C)N(C)C(=O)[C@H](Cc2ccccc2)OC(=O)CSC[C@@](C)(C(N)=O)NC(=O)[C@H](Cc2cccnc2)N(C)C(=O)[C@H](CCCC)NC(=O)[C@H](Cc2ccccc2F)NC1=O [compound 397, cyclo(FLac-NMeA-Phe4GnMeMe-Nle-Phe2F-Nle-NMe3Pal-aMeCl-ClAc)] ({CH2CO}-[PhLac][NMeA][X18][Nle][Phe(2-F)][Nle][NMe3Pal][αMeC]-NH2; thioether N-8) | 2.73 |
| C[C@H](c1ccccc1)[C@H]1C(=O)NCC23CC(C2)(C3)C(=O)O[C@@H](Cc2ccccc2)C(=O)N(C)[C@@H](C)C(=O)N[C@@H](Cc2cncnc2)C(=O)N[C@@H](CC2CC2)C(=O)N[C@@H](Cc2ccccc2F)C(=O)N[C@@H](CCC(C)(C)F)C(=O)N1C [compound 341, cyclo(FLac-NMeA-PyrimAla-cPrA-Phe2F-hL3F-NMeRbMeF-amBCP)] (cyclo([Ala(cPr)][Phe(2-F)][X11][X19][X1][PhLac][NMeA][Ala(pyrimidin-5-yl)])) | 1370 |
| CCCC[C@@H]1NC(=O)[C@H](Cc2cccnc2)NC(=O)[C@H](CCCn2ccnc2)N(C)C(=O)[C@H](Cc2ccccc2)OC(=O)C23CC(CNC(=O)[C@H](Cc4ccccc4)N(C)C(=O)[C@H](CCCC)NC(=O)[C@H](Cc4ccccc4F)NC1=O)(C2)C3 [compound 233, cyclo(FLac-NMeNvalmid-3Pal-Nle-Phe2F-Nle-NMeF-amBCP)] (cyclo([3Pal][Nle][Phe(2-F)][Nle][NMeF][X1][PhLac][NMeNva(5-imidazol-1-yl)])) | 28.9 |
| CCCC[C@@H]1NC(=O)[C@H](CCCOC)NC(=O)[C@H](CC2CCC2)NC(=O)[C@H](Cc2cccnc2)NC(=O)[C@H](CCCNC(=N)N)NC(=O)[C@H](Cc2ccccc2)NC(=O)CSC[C@@](C)(C(N)=O)NC(=O)[C@H](Cc2ccccc2)N(C)C1=O [compound 55, cyclo(F-R-3Pal-cBuA-NvaOMe-Nle-NMeF-aMeCl-ClAc)] ({CH2CO}-FR[3Pal][Cba][X41][Nle][NMeF][αMeC]-NH2; thioether N-8) | 4410 |
| CCCCC[C@@H]1NC(=O)[C@H](Cc2ccc(OC)cc2)NC(=O)[C@H](CC2CCC2)NC(=O)[C@H](Cc2ccc(N(C)C(=N)NC)cc2)NC(=O)[C@H](CCCNC)N(C)C(=O)[C@H](Cc2ccccc2)NC(=O)CSC[C@@](C)(C(N)=O)NC(=O)[C@H](Cc2ccc(C)nc2)N(C)C1=O [compound 395, cyclo(F-NMeOmMe-Phe4GnMeMe-cBuA-TyrOMe-Ahp-NMe3Pal4Me-aMeCl-ClAc)] ({CH2CO}-F[NMeOrn(Me)][X18][Cba]Y(Me)[Ahp(2)][NMe3Pal(6-Me)][αMeC]-NH2; thioether N-8) | 16 |
| Cc1cccc(C[C@H]2C(=O)NCC34CC(C3)(C4)C(=O)O[C@@H](Cc3ccccc3)C(=O)N(C)[C@@H](C)C(=O)N[C@@H](Cc3cncnc3)C(=O)N[C@@H](CC3CC3)C(=O)N[C@@H](Cc3cnccc3F)C(=O)N[C@@H](CCC(C)C)C(=O)N2C)c1 [compound 278, cyclo(FLac-NMeA-PyrimAla-cPrA-3Pal6F-hL-NMePhe3Me-amBCP)] (cyclo([Ala(cPr)][X15][hLeu][NMePhe(3-Me)][X1][PhLac][NMeA][Ala(pyrimidin-5-yl)])) | 2 |
| CC(C)CC[C@@H]1NC(=O)[C@H](Cc2ccccc2F)NC(=O)[C@H](CC2CCCC2)NC(=O)[C@H](Cc2cncnc2)NC(=O)[C@H](C)N(C)C(=O)[C@H](Cc2ccccc2)OC(=O)C23CC(CNC(=O)[C@H](Cc4cncnc4)N(C)C1=O)(C2)C3 [compound 335, cyclo(FLac-NMeA-PyrimAla-cPeA-Phe2F-hL-NMeAlaPyrim-amBCP)] (cyclo([Ala(cPent)][Phe(2-F)][hLeu][X3][X1][PhLac][NMeA][Ala(pyrimidin-5-yl)])) | 1 |
| CCCC[C@@H]1NC(=O)[C@H](CCCCN)NC(=O)[C@H](CCCNC(=N)N)NC(=O)[C@H](C(c2ccccc2)c2ccccc2)NC(=O)CSC[C@H](C(N)=O)NC(=O)[C@H](Cc2ccccc2)N(C)C(=O)[C@H](CCCC)NC(=O)[C@H](Cc2ccc(O)cc2)NC1=O [compound 149, cyclo(Dip-R-K-Nle-Y-Nle-NMeF-dCl-ClAc)] | 1030 |
| CC(C)CC[C@@H]1NC(=O)[C@H](Cc2ccccc2F)NC(=O)[C@H](CC2CC2)NC(=O)[C@H](Cc2cncnc2)NC(=O)[C@H](C)N(C)C(=O)[C@H](Cc2ccccc2)OC(=O)C23CC(CNC(=O)[C@H](Cc4ccncc4F)N(C)C1=O)(C2)C3 [compound 337, cyclo(FLac-NMeA-PyrimAla-cPrA-Phe2F-hL-NMe4Pal2F-amBCP)] (cyclo([Ala(cPr)][Phe(2-F)][hLeu][X45][X1][PhLac][NMeA][Ala(pyrimidin-5-yl)])) | 3 |
| CCCCC[C@@H]1NC(=O)[C@H](Cc2ccc(OC)cc2)NC(=O)[C@H](CC2CCC2)NC(=O)[C@H](Cc2ccc(NC(=N)N)cc2)NC(=O)[C@H](CCCNC)N(C)C(=O)[C@H](Cc2ccccc2)NC(=O)CSC[C@@](C)(C(N)=O)NC(=O)[C@H](Cc2ccccc2)N(C)C1=O [compound 385, cyclo(F-NMeOrnMe-Phe4Gn-cBuA-TyrOMe-Ahp-NMeF-aMeCl-ClAc)] ({CH2CO}-F[NMeOrn(Me)][Phe(4-guanidino)][Cba]Y(Me)[Ahp(2)][NMeF][αMeC]-NH2; thioether N-8) | 19.7 |
| CCCCC[C@@H]1NC(=O)[C@H](Cc2ccc(OC)cc2)NC(=O)[C@H](CC2CCC2)NC(=O)[C@H](Cc2cccnc2)NC(=O)[C@H](CCCNC(=N)N)NC(=O)[C@H](Cc2ccccc2)NC(=O)CSC[C@@](C)(C(N)=O)NC(=O)[C@H](Cc2cn(C)cn2)N(C)C1=O [compound 378, cyclo(F-R-3Pal-cBuA-TyrOMe-Ahp-NMeHis1Me-aMeCl-ClAc)] ({CH2CO}-FR[3Pal][Cba]Y(Me)[Ahp(2)][NMeHis(τ-Me)][αMeC]-NH2; thioether N-8) | 45.2 |
| C#CC[C@@H]1NC(=O)[C@H](CC2CCC2)NC(=O)[C@H](Cc2cccnc2)NC(=O)[C@H](CCCNC(=N)N)NC(=O)[C@H](Cc2ccccc2)NC(=O)CSC[C@@](C)(C(N)=O)NC(=O)[C@H](Cc2ccccc2)N(C)C(=O)[C@H](CCCC)NC1=O [compound 51, cyclo(F-R-3Pal-cBuA-Pra-Nle-NMeF-aMeCl-ClAc)] ({CH2CO}-FR[3Pal][Cba][Pra][Nle][NMeF][αMeC]-NH2; thioether N-8) | 298 |
| CCCC[C@@H]1NC(=O)[C@H](CCCNC(=N)N)NC(=O)[C@H](Cc2ccccc2)NC(=O)CSCCNC(=O)[C@H](Cc2ccccc2)N(C)C(=O)[C@H](CCCC)NC(=O)[C@H](Cc2ccc(O)cc2)NC(=O)[C@H](CC(C)C)NC1=O [compound 81, cyclo(F-R-Nle-L-Y-Nle-NMeF-Cysteamine-ClAc)] (cyclo(FR[Nle]LY[Nle][NMeF][NHCH2CH2SCH2CO])) | 7980 |
| CCCC[C@@H]1NC(=O)[C@H](Cc2ccc(F)nc2)NC(=O)[C@H](C)N(C)C(=O)[C@H](Cc2ccccc2)OC(=O)C23CC(CNC(=O)[C@H](Cc4ccccc4)N(C)C(=O)[C@H](CCCC)NC(=O)[C@H](Cc4ncccc4F)NC1=O)(C2)C3 [compound 228, cyclo(FLac-NMeA-4F3Pal-Nle-2Pal6F-Nle-NMeF-amBCP)] (cyclo([NMeA][X25][Nle][X30][Nle][NMeF][X1][PhLac])) | 870 |
| CCC[C@@H]1NC(=O)[C@H](Cc2ccc(OC)cc2)NC(=O)[C@H](CC(C)C)NC(=O)[C@H](Cc2cccnc2)NC(=O)[C@H](CCCNC(=N)N)NC(=O)[C@H](Cc2ccc(F)cc2)NC(=O)CSCCNC(=O)[C@H](Cc2ccccc2)N(C)C1=O [compound 87, cyclo(Phe4F-R-3Pal-L-TyrOMe-Nva-NMeF-Cysteamine-ClAc)] (cyclo([3Pal]LY(Me)[Nva][NMeF][NHCH2CH2SCH2CO][Phe(4-F)]R)) | 1600 |
| CCCC[C@@H]1NC(=O)[C@H](Cc2cncnc2)NC(=O)[C@H](C)N(C)C(=O)[C@H](Cc2ccccc2)OC(=O)C23CC(CNC(=O)[C@H](Cc4ccc(C)cc4)N(C)C(=O)[C@H](CCCC)NC(=O)[C@H](Cc4ccccc4F)NC1=O)(C2)C3 [compound 171, cyclo(FLac-NMeA-PyrimAla-Nle-Phe2F-Nle-NMePhe4Me-amBCP)] (cyclo([NMeA][Ala(pyrimidin-5-yl)][Nle][Phe(2-F)][Nle][NMePhe(4-Me)][X1][PhLac])) | 19.1 |
| CCCC[C@@H]1NC(=O)[C@H](Cc2ccc(C(F)(F)F)nc2)NC(=O)[C@H](CCCn2ccnc2)N(C)C(=O)[C@H](Cc2ccccc2)OC(=O)C23CC(CNC(=O)[C@H](Cc4ccccc4)N(C)C(=O)[C@H](CCCC)NC(=O)[C@H](Cc4ccccc4F)NC1=O)(C2)C3 (single isomer, unassigned) [compound 219, cyclo(FLac-NMeNvaImid-4CF33Pal-Nle-Phe2F-Nle-NMeF-amBCP)] | 62.8 |

same assay, conditions: listed as 190

| Structure (SMILES) | EC50 [nM] |
| --- | --- |
| COc1ccc(C[C@@H]2NC(=O)[C@H](CC3CCC3)NC(=O)[C@H](Cc3cccnc3)NC(=O)[C@H](CCCNC(=N)N)NC(=O)[C@H](Cc3ccccc3)NC(=O)CSC[C@](C)(C(N)=O)NC(=O)[C@@H]3CCCCCCC[C@H](NC2=O)C(=O)N3C)cc1 (single isomer, unassigned) [SEQ ID NO: 190] | 650 |
